Measurements: ChEMBL document CHEMBL1128864, “Antitumor activities of -, -monogalactosylceramides and four diastereomers of an -galactosylceramide” (1995)

Columns and labels:
Assay type in all cases: functional
[1] = tested on: Mus musculus; assay: Percent of tumor growth inhibition ratio (TGIR)of the compound administered intravenously at dose 5 mg/kg (on day 10, 14, 18 ) in subcutaneously infected BDF1 mice on day 12; details: route intravenous
[2] = tested on: Mus musculus; assay: Percent of tumor growth inhibition ratio (TGIR)of the compound administered intraperitoneally at dose 5 mg/kg (on day 7, 11,15) in subcutaneously infected BDF1 mice on day 9; details: route subcutaneous
[3] = tested on: Mus musculus; assay: Percent of tumor growth inhibition ratio (TGIR)of the compound administered intravenously at dose 5 mg/kg (on day1,5,9) in subcutaneously infected BDF1 mice on day 16; details: route intravenous
[4] = tested on: Mus musculus; assay: Percent of tumor growth inhibition ratio (TGIR)of the compound administered intravenously at dose 5 mg/kg (on day 1) in subcutaneously infected BDF1 mice on day 11; details: route intravenous
[5] = tested on: Mus musculus; assay: Percent of tumor growth inhibition ratio (TGIR)of the compound administered intraperitoneally at dose 100 ug/kg(on day 1) in subcutaneously infected BDF1 mice on day 12
[6] = tested on: Mus musculus; assay: Percent of tumor growth inhibition ratio (TGIR)of the compound administered intravenously at dose 5 mg/kg (on day 1) in subcutaneously infected BDF1 mice on day 14; details: route intravenous
[7] = tested on: Mus musculus; assay: Percent of tumor growth inhibition ratio (TGIR)of the compound administered intravenously at dose 5 mg/kg (on day 1,5,9) in subcutaneously infected BDF1 mice on day 8; details: route intravenous
[8] = tested on: Mus musculus; assay: Percent of tumor growth inhibition ratio (TGIR)of the compound administered intravenously at dose 5 mg/kg (on day 1) in subcutaneously infected BDF1 mice on day 22; details: route intravenous
[9] = tested on: Mus musculus; assay: Percent of tumor growth inhibition ratio (TGIR)of the compound administered intraperitoneally at dose 5 mg/kg (on day 1) in subcutaneously infected BDF1 mice on day 10; details: route subcutaneous
[10] = tested on: Mus musculus; assay: Percent of tumor growth inhibition ratio (TGIR)of the compound administered intraperitoneally at dose 100 ug/kg(on day 1) in subcutaneously infected BDF1 mice on day 13
[11] = tested on: Mus musculus; assay: Percent of tumor growth inhibition ratio (TGIR)of the compound administered intraperitoneally at dose 5 mg/kg (on day 7, 11,15) in subcutaneously infected BDF1 mice on day 16; details: route subcutaneous
[12] = tested on: Mus musculus; assay: Percent of tumor growth inhibition ratio (TGIR)of the compound administered intravenously at dose 5 mg/kg (on day 1) in subcutaneously infected BDF1 mice on day 18; details: route intravenous
[13] = tested on: Mus musculus; assay: Percent of tumor growth inhibition ratio (TGIR)of the compound administered intraperitoneally at dose 100 ug/kg(on day 1) in subcutaneously infected BDF1 mice on day 20
[14] = tested on: Mus musculus; assay: Percent of tumor growth inhibition ratio (TGIR)of the compound administered intravenously at dose 5 mg/kg (on day 10, 14, 18 ) in subcutaneously infected BDF1 mice on day 16; details: route intravenous
[15] = tested on: Mus musculus; assay: Percent of tumor growth inhibition ratio (TGIR)of the compound administered intravenously at dose 5 mg/kg (on day 1) in subcutaneously infected BDF1 mice on day 20; details: route intravenous
[16] = tested on: Mus musculus; assay: Percent of tumor growth inhibition ratio (TGIR)of the compound administered intravenously at dose 5 mg/kg (on day10, 14, 18 ) in subcutaneously infected BDF1 mice on day 20; details: route intravenous
[17] = tested on: Mus musculus; assay: Percent of tumor growth inhibition ratio (TGIR)of the compound administered intravenously at dose 5 mg/kg (on day 1,5,9) in subcutaneously infected BDF1 mice on day 12; details: route intravenous
[18] = tested on: Mus musculus; assay: Percent of tumor growth inhibition ratio (TGIR)of the compound administered intravenously at dose 100 ug/kg(on day 7, 11,15) in subcutaneously infected BDF1 mice on day 16
[19] = tested on: Mus musculus; assay: Percent of tumor growth inhibition ratio (TGIR)of the compound administered intravenously at dose 5 mg/kg (on day 1,5,9) in subcutaneously infected BDF1 mice on day 20; details: route intravenous

Compound: CO[C@@]12[C@H](COC(N)=O)C3=C(C(=O)C(C)=C(N)C3=O)N1C[C@@H]1N[C@@H]12 [MITOMYCIN]
- TGIR [1]: 38.8%
- TGIR [2]: 35.2%
- TGIR [3]: 86%
- TGIR [4]: 8.6%
- TGIR [5]: 53.9%
- TGIR [6]: 29.7%
- TGIR [7]: 90%
- TGIR [8]: 60%
- TGIR [9]: 80.1%
- TGIR [10]: 85.1%
- TGIR [11]: 59.7%
- TGIR [12]: 51.2%
- TGIR [13]: 48.6%
- TGIR [14]: 52.8%
- TGIR [15]: 75.1%
- TGIR [16]: 68.1%
- TGIR [17]: 89.7%
- TGIR [18]: 80%
- TGIR [19]: 83.2%
